{"source": "patent US20190314431A1", "about": "“Method of Discovery of Potential Bioactive Compounds in Herbals by Regrouping after Chromatography” (priority 2018, published 2019)", "test_system": "mice initiated with morphine", "assay": "Anti-opioid addiction effectiveness test of grouped herbal compounds in mice", "type": "in vivo", "experimental": "Mice will be initiated with morphine at 1 mg/ml for 21 days.\nThe second test: use separate groups of compounds to test effectiveness in mice. The definition of effective.\n1. Ten Mice in Each Group."}
{"molecule": "CN1CC[C@]23c4c5ccc(O)c4O[C@H]2[C@@H](O)C=C[C@H]3[C@H]1C5", "note": "[Morphine]", "values": [{"measurement": "Effective", "setting": "3rd test, regrouped compounds of groups 2 and 9", "result": "Yes"}, {"measurement": "Effective", "setting": "second test, ten mice in each group, mice initiated with morphine at 1 mg/ml for 21 days", "result": "Yes"}]}
